ChEMBL document CHEMBL1129877, “Design, synthesis and biological evaluation of 1,3-diaminopropanes: a new class of polyamine analogs as leishmanicidal agents” (1997)

Tests used:
Format in all cases: functional
Leishmania donovani = assay: In vivo anti-leishmanial activity to Leishmania donovani infected hamster after intraperitoneal dose of 50 mg/kg X 5 on day 7th; conditions: ip
[1] = Tested in vivo for anti-leishmanial activity against Leishmania donovani infected hamster intraperitoneal dose of 25 mg/kg X 5 on day 7th; conditions: ip
[2] = Tested in vivo for anti-leishmanial activity against Leishmania donovani infected hamster auratus after oral dose of 50 mg/kg X 5 on day 7th
[3] = Tested in vivo for anti-leishmanial activity against Leishmania donovani infected hamster intraperitoneal dose of 100 mg/kg X 5 on day 7th; conditions: ip
[4] = Tested in vivo for anti-leishmanial activity against Leishmania donovani infected hamster auratus after oral dose of 25 mg/kg X 5 on day 7th

SMILES | inhibition in vivo at 50 mg/kg (Leishmania donovani) [%] | also measured
CN1CCN(CCCNCCC#N)CC1 | 78.1 | –
CCN1CCCN(CCCN2CCCCC2)C1=O | 41.2 | –
COC(=O)/N=C(\NCCCN1CCCCC1)NC(=O)OC | 56.2 | –
COC(=O)/N=C(\NCCCN1CCOCC1)NC(=O)OC | 80.2 | –
CN1CCN(CCCN=C(N)N)CC1 | 45.1 | –
N=C(N)NCCCN1CCCCC1 | 42.1 | –
CN1CCN(CCCN)CC1 | 66.9 | –
NCCCN1CCN(c2ccccc2)CC1 | 37.2 | –
NCCCN1CCOCC1 | 45.8 | –
N#CCCNCCCN1CCC(c2ccccc2)CC1 | 43.4 | –
COC(=O)/N=C(\NCCCN1CCC(c2ccccc2)CC1)NC(=O)OC | 66.5 | –
CN1CCN(CCCN2CCCNC2=O)CC1 | 52.1 | –
NCCCN1CCCCC1 | 52.4 | –
N#CCCNCCCN1CCN(c2ccccc2)CC1 | 71 | inhibition in vivo at 25 mg/kg [1]: 71.2%
N#CCCNCCCN1CCCCC1 | 64.8 | –
COC(=O)/N=C(\NCCCN1CCN(C)CC1)NC(=O)OC | 85.5 | –
NCCCN1CCC(c2ccccn2)CC1 | 48.7 | –
COC(=O)/N=C(\NCCCN1CCN(c2ccccc2)CC1)NC(=O)OC | 73.8 | –
CC1CCN(CCCN=C(N)N)CC1 | 62.2 | –
CC1CCN(CCCN)CC1 | 54.5 | –
CC1CCN(CCCN2CCCNC2=O)CC1 | 60.8 | –
CCN1CCCN(CCCN2CCC(C)CC2)C1=O | 25 | –
N=C(N)NCCCN1CCC(c2ccccc2)CC1 | 57.7 | –
CC1CCN(CCCNCCC#N)CC1 | 45 | –
COC(=O)/N=C(\NCCCN1CCC(c2ccccn2)CC1)NC(=O)OC | 72.8 | inhibition in vivo at 25 mg/kg [1]: 73.2%
NCCCN1CCC(c2ccccc2)CC1 | 66 | –
COC(=O)/N=C(\NCCCN1CCC(C)CC1)NC(=O)OC | 78.4 | inhibition in vivo at 50 mg/kg [2]: 76.8%; inhibition in vivo at 100 mg/kg [3]: 46.4%; inhibition in vivo at 25 mg/kg [1]: 80.9%; inhibition in vivo at 25 mg/kg [4]: 77.6%
O=C1NCCCN1CCCN1CCCCC1 | 43 | –
